# From patent publication US20040121991A1, “Dehydroepiandrosterone (DHEA) congeners for prevention and/or treatment of ulcers” (priority 2002, published 2004)
# Several values for one entry are separate records, joined by “and”; a condition that tells them apart may be missing. Identical values can stand only once.
# How the values were obtained:
# [1] = test system: TNBS-induced colonic damage; format: in vivo, Male Wistar rats
# Experimental: In this Example, the effects of DHEA were evaluated in the TNBS model (see, e.g., Boughton-Smith et al., 1988; Morris et al., 1989; Reuter et al., 1996) at a defined oral dose administered twice a day by gavage, using a low intracolonic concentration of TNBS (10 mg). This challenge dose of TNBS is known to generate reproducible yet not unduly severe mucosal injury in the colon, as determined 3 days after instillation. In this current investigation, colonic macroscopic injury has been assessed. In addition to DHEA, the effect of a single daily low oral dose of dexamethasone, which has a broad profile of anti-inflammatory actions, was also evaluated in this model.
# Male Wistar rats (220-300 g) were randomised into groups before commencement of the study. On day 0, the rats were transiently anaesthetised with ether and TNBS (10 mg in 0.25 ml of 50% ethanol) was instilled into the colon using a soft plastic catheter inserted in the rat rectum. The rats were allowed to recover with free access to food and drinking water. At the end of the Experiment, 72 h after TNBS administration (i.e. on the morning of day 3), the distal colon was dissected, photographed and stored appropriately for subsequent analyses. Macroscopic scoring of distal 8 cm of colon was measured as the primary efficacy parameter. In addition, the weight of the colonic segment was assessed as an indirect and non-specific marker of oedema, and the body weight of the animals was determined each day of the study.
# The groups (n=8-12) for study with TNBS challenge were: (a) saline control administered in 0.5 ml p.o. per rat, b.i.d; (b) DHEA (50 mg per rat, b.i.d); (c) dexamethasone (0.3 mg/kg, oral, once daily); (d) control non-challenged with TNBS and non-drug-treated (received only salineb.i.d.). The DHEA was administered orally, twice daily for 48 h before TNBS administration, on Day 0 with TNBS administration and on Day 1 and 2. The DHEA was administered as a solid bicarbonate composite providing high bioavailability. Tissues were removed 72 h after TNBS administration (Day 3). Saline treated animals on the final day were 95.6+/−1.7% of mean starting body weight. Similarly, DHEA-treated animals were 95.4+/−1.1% of their mean starting body weight. Weight loss in the Dexamethasone treatment group was significant at 84.5+/−1.3% of starting weight.
# [2] = test system: oral mucositis; assay: Acute radiation model of oral mucositis in hamsters; format: in vivo, Male Golden Syrian hamsters; details: day -1 to day 27; for weight change following irradiation: 40 Gy on day 0, DHEA-cyclodextrin complex; for daily mucositis scores vs saline control: score scale 0-5
# Text: The acute radiation model in hamsters (see, e.g., Sonis et al., 2000) has proven to be an accurate, efficient and cost-effective technique to provide a preliminary evaluation of anti-mucositis compounds. The course of mucositis in this model is well defined and results in peak ulceration scores approximately 14-16 days following radiation. The acute model has been used to study specific mechanistic elements in the pathogenesis of mucositis. Molecules that show efficacy in the acute radiation model may be further evaluated in the more complex models of fractionated radiation, chemotherapy, or concomitant therapy. In this example, an acute radiation dose of 40 Gy on day 0 was administered and clinically significant mucositis was observed around day 14.
# Animals. Male Golden Syrian hamsters were randomly and prospectively divided into six (6) treatment groups prior to irradiation as follows:
# Hamsters were given an acute radiation dose directed to their oral mucosa. Test materials were applied by injection (once per day) or by oral dosing (either once or twice per day. Oral administrations were done using feeding needles. Dosing began the day before radiation (day −1) and continued until day 27. The test material utilized was an Inflabloc® pharmaceutical preparation, which, for the present example, comprised a complex of DHEA and cyclodextrin.
# Starting on Day 6 and continuing every second day thereafter (days 8, 10, 12, 14, 16, 18, 20, 22, 24, 26, & 28), each animal was evaluated for mucositis scoring.
# Mucositis Scoring. Parameters measured were the mucositis score, weight change and survival. For the evaluation of mucositis, the animals were anesthetized with inhalation anesthetics, and the left pouch everted. Mucositis was scored visually by comparison to a validated photographic scale, ranging from 0 for normal, to 5 for severe ulceration (clinical scoring).
# A score of 1-2 is considered to represent a mild stage of the disease, whereas a score of 3-5 is considered to indicate moderate to severe mucositis. Following visual scoring, a photograph was taken of each animal's mucosa using a standardized technique. At the conclusion of the experiment, all film was developed and the photographs randomly numbered. At least two independent trained observers graded the photographs in blinded fashion using the above-described scale (blinded scoring).
# The effect on mucositis of each drug treatment compared to placebo was assessed according to these parameters: the difference in the number of days hamsters in each group have severe (score 3) mucositis and the rank sum differences in daily mucositis scores. On each evaluation day, the number of animals with a blinded mucositis score of 3 in each drug treatment group, was compared to the control group. Differences were analyzed on a cumulative basis. For each evaluation day the scores of the control group were compared to those of the placebo group and vehicle group.
# Mucositis Induction. Mucositis was induced using a standardized acute radiation protocol using a single dose of radiation (40 Gy/dose) on Day 0.
Structure (SMILES),"area of colonic injury, % of the mucosal area ([1]; dexamethasone 0.3 mg/kg once a day oral, 72 h after TNBS challenge, n=8, TNBS control 48±2%) [%]",weight change following irradiation ([2]; 25 mg/kg/day ip),daily mucositis scores vs saline control ([2]; 50 mg/kg i.p.),weight change following irradiation ([2]; 50 mg/kg/day ip),weight change following irradiation ([2]; 250 mg/kg/day p.o.),daily mucositis scores vs saline control ([2]; 500 mg/kg/day oral),weight change following irradiation ([2]; 500 mg/kg/day p.o.),"body weight on the final day, % of mean starting body weight ([1]; DHEA 50 mg per rat b.i.d. oral, solid bicarbonate composite, TNBS 10 mg, day 3)","area of colonic injury, % of total colonic area of the segment ([1]; DHEA 50 mg per rat b.i.d. oral, 72 h after TNBS challenge, TNBS control 48±2%)","reduction in the area of colonic injury ([1]; DHEA 50 mg per rat b.i.d. oral, vs TNBS control, P<0.001)","colon weight of the standard segment (index of inflammatory oedema) ([1]; DHEA 50 mg per rat b.i.d. oral, vs saline + TNBS, end of study)"
C[C@@H]1C[C@H]2[C@@H]3CCC4=CC(=O)C=C[C@]4(C)[C@@]3(F)[C@@H](O)C[C@]2(C)[C@@]1(O)C(=O)CO [dexamethasone],41±5,,,,,,,,,,
"C[C@]12CC[C@H](O)CC1=CC[C@@H]1[C@@H]2CC[C@]2(C)C(=O)CC[C@@H]12 [DHEA, (3β)-3-hydroxyandrost-5-en-17-one]",,weight gain patterns that closely corresponded to those observed in the control group,significantly lower than those in the saline control group,weight gain patterns that closely corresponded to those observed in the control group,no pattern of weight loss,significantly lower than those in the saline control group,no pattern of weight loss,95.4+/−1.1%,31+/−3%,40% and ~40%,significantly (P<0.001) reduced
